# From patent US8772480B2, “Inhibitors of PI3 kinase and/or mTOR” (priority 2009, dated 2014)
# Target: ProfilerPro Kinase Selectivity Assay Kit kinases (Homo sapiens, UniProt O00141)
# Type: biochemical
# Conditions: SGK1; 1 μM compound concentration
# Protocol: (§1) Compounds were profiled using a LabChip® EZ Reader II platform and a ProfilerPro Kinase Selectivity Assay Kit (Caliper Lifesciences Inc., Hopkinton, Mass.). Compounds were tested at a concentration of 1 M in duplicate, with mean data reported as percent of control (POC).
row,SMILES,POC (Percent of control) SGK1 [POC]
1,"c1cnc(Nc2cccc3[nH]ncc23)c(-c2ncnc3[nH]cnc23)c1 [Example 18, N-(3-(9H-Purin-6-yl)Pyridin-2-yl)-1H-Indazol-4-Amine]",97

# Target: ProfilerPro Kinase Selectivity Assay Kit kinases (Homo sapiens, UniProt O14757)
# Type: biochemical
# Conditions: CHK1; 1 μM compound concentration
# Protocol: as §1
row,SMILES,POC (Percent of control) CHK1 [POC]
1,"c1cnc(Nc2cccc3[nH]ncc23)c(-c2ncnc3[nH]cnc23)c1 [Example 18, N-(3-(9H-Purin-6-yl)Pyridin-2-yl)-1H-Indazol-4-Amine]",97

# Target: ProfilerPro Kinase Selectivity Assay Kit kinases (Homo sapiens, UniProt O75116)
# Type: biochemical
# Conditions: ROCK2; 1 μM compound concentration
# Protocol: as §1
row,SMILES,POC (Percent of control) ROCK2 [POC]
1,"c1cnc(Nc2cccc3[nH]ncc23)c(-c2ncnc3[nH]cnc23)c1 [Example 18, N-(3-(9H-Purin-6-yl)Pyridin-2-yl)-1H-Indazol-4-Amine]",98

# Target: ProfilerPro Kinase Selectivity Assay Kit kinases (Homo sapiens, UniProt O75582)
# Type: biochemical
# Conditions: MSK1; 1 μM compound concentration
# Protocol: as §1
row,SMILES,POC (Percent of control) MSK1 [POC]
1,"c1cnc(Nc2cccc3[nH]ncc23)c(-c2ncnc3[nH]cnc23)c1 [Example 18, N-(3-(9H-Purin-6-yl)Pyridin-2-yl)-1H-Indazol-4-Amine]",97

# Target: ProfilerPro Kinase Selectivity Assay Kit kinases (Homo sapiens, UniProt O96017)
# Type: biochemical
# Conditions: CHK2; 1 μM compound concentration
# Protocol: as §1
row,SMILES,POC (Percent of control) CHK2 [POC]
1,"c1cnc(Nc2cccc3[nH]ncc23)c(-c2ncnc3[nH]cnc23)c1 [Example 18, N-(3-(9H-Purin-6-yl)Pyridin-2-yl)-1H-Indazol-4-Amine]",94

# Target: ProfilerPro Kinase Selectivity Assay Kit kinases (Homo sapiens, UniProt P00519)
# Type: biochemical
# Conditions: ABL; 1 μM compound concentration
# Protocol: as §1
row,SMILES,POC (Percent of control) ABL [POC]
1,"c1cnc(Nc2cccc3[nH]ncc23)c(-c2ncnc3[nH]cnc23)c1 [Example 18, N-(3-(9H-Purin-6-yl)Pyridin-2-yl)-1H-Indazol-4-Amine]",77

# Target: ProfilerPro Kinase Selectivity Assay Kit kinases (Homo sapiens, UniProt P04049)
# Type: biochemical
# Conditions: cRAF; 1 μM compound concentration
# Protocol: as §1
row,SMILES,POC (Percent of control) cRAF [POC]
1,"c1cnc(Nc2cccc3[nH]ncc23)c(-c2ncnc3[nH]cnc23)c1 [Example 18, N-(3-(9H-Purin-6-yl)Pyridin-2-yl)-1H-Indazol-4-Amine]",1

# Target: ProfilerPro Kinase Selectivity Assay Kit kinases (Homo sapiens, UniProt P06239)
# Sequence (P06239 2-509 limits assumed): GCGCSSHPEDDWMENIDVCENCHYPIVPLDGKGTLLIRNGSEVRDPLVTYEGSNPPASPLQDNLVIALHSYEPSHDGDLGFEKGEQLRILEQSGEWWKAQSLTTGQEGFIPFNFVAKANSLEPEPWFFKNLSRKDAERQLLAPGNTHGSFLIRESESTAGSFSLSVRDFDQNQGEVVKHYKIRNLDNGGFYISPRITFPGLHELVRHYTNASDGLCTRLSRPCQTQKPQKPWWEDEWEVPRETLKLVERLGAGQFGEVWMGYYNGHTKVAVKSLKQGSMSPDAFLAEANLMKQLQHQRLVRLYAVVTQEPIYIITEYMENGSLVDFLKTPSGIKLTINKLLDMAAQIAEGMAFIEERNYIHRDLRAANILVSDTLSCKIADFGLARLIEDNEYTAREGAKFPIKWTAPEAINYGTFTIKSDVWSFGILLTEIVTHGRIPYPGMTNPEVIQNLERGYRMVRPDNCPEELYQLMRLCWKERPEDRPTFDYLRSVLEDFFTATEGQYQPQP
# Type: biochemical
# Conditions: LCK; 1 μM compound concentration
# Protocol: as §1
row,SMILES,POC (Percent of control) LCK [POC]
1,"c1cnc(Nc2cccc3[nH]ncc23)c(-c2ncnc3[nH]cnc23)c1 [Example 18, N-(3-(9H-Purin-6-yl)Pyridin-2-yl)-1H-Indazol-4-Amine]",72

# Target: ProfilerPro Kinase Selectivity Assay Kit kinases (Homo sapiens, UniProt P07948)
# Sequence (P07948 2-512 limits assumed): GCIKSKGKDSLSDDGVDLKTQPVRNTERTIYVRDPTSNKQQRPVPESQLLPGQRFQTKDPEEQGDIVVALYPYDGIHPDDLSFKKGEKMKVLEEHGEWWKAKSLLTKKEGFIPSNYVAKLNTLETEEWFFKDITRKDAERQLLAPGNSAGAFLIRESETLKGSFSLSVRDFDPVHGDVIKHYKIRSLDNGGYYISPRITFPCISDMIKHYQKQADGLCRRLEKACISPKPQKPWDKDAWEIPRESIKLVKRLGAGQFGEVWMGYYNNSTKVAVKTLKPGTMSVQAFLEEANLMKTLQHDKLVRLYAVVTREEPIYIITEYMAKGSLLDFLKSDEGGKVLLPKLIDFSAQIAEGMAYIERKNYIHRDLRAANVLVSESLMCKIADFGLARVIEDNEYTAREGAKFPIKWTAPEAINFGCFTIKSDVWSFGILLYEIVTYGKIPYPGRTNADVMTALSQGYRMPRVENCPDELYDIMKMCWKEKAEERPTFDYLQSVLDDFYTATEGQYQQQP
# Type: biochemical
# Conditions: LYN; 1 μM compound concentration
# Protocol: as §1
row,SMILES,POC (Percent of control) LYN [POC]
1,"c1cnc(Nc2cccc3[nH]ncc23)c(-c2ncnc3[nH]cnc23)c1 [Example 18, N-(3-(9H-Purin-6-yl)Pyridin-2-yl)-1H-Indazol-4-Amine]",81

# Target: ProfilerPro Kinase Selectivity Assay Kit kinases (Homo sapiens, UniProt P08581)
# Type: biochemical
# Conditions: cMET; 1 μM compound concentration
# Protocol: as §1
row,SMILES,POC (Percent of control) cMET [POC]
1,"c1cnc(Nc2cccc3[nH]ncc23)c(-c2ncnc3[nH]cnc23)c1 [Example 18, N-(3-(9H-Purin-6-yl)Pyridin-2-yl)-1H-Indazol-4-Amine]",104

# Target: ProfilerPro Kinase Selectivity Assay Kit kinases (Homo sapiens, UniProt P11362)
# Sequence (P11362 22-822 limits assumed): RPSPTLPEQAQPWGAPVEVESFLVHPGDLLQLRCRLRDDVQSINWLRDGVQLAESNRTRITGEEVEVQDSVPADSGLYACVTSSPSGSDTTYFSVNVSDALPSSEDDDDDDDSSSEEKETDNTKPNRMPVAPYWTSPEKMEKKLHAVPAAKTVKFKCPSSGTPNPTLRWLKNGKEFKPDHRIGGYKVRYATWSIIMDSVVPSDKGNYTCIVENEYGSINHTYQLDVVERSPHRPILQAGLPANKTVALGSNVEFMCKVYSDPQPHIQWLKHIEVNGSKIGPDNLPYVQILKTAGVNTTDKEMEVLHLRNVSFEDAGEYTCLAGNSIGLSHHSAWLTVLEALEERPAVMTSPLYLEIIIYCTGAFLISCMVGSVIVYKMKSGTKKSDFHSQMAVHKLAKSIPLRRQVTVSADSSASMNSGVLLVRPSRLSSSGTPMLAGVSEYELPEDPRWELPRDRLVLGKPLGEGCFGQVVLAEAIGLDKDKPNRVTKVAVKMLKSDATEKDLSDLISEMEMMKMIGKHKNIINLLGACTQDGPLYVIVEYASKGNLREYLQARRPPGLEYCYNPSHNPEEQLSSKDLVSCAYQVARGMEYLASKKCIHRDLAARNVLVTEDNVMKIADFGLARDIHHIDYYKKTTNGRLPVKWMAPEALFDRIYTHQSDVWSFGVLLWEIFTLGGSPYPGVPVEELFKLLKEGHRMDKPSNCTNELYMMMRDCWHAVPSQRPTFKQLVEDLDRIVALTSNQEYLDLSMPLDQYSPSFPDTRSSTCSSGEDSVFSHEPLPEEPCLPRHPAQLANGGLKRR
# Type: biochemical
# Conditions: FGFR1; 1 μM compound concentration
# Protocol: as §1
row,SMILES,POC (Percent of control) FGFR1 [POC]
1,"c1cnc(Nc2cccc3[nH]ncc23)c(-c2ncnc3[nH]cnc23)c1 [Example 18, N-(3-(9H-Purin-6-yl)Pyridin-2-yl)-1H-Indazol-4-Amine]",62

# Target: ProfilerPro Kinase Selectivity Assay Kit kinases (Homo sapiens, UniProt P23443)
# Type: biochemical
# Conditions: p70S6K; 1 μM compound concentration
# Protocol: as §1
row,SMILES,POC (Percent of control) p70S6K [POC]
1,"c1cnc(Nc2cccc3[nH]ncc23)c(-c2ncnc3[nH]cnc23)c1 [Example 18, N-(3-(9H-Purin-6-yl)Pyridin-2-yl)-1H-Indazol-4-Amine]",98

# Target: ProfilerPro Kinase Selectivity Assay Kit kinases (Homo sapiens, UniProt P24941)
# Type: biochemical
# Conditions: CDK2; 1 μM compound concentration
# Protocol: as §1
row,SMILES,POC (Percent of control) CDK2 [POC]
1,"c1cnc(Nc2cccc3[nH]ncc23)c(-c2ncnc3[nH]cnc23)c1 [Example 18, N-(3-(9H-Purin-6-yl)Pyridin-2-yl)-1H-Indazol-4-Amine]",91

# Target: ProfilerPro Kinase Selectivity Assay Kit kinases (Homo sapiens, UniProt P27361)
# Sequence (P27361 2-379 limits assumed): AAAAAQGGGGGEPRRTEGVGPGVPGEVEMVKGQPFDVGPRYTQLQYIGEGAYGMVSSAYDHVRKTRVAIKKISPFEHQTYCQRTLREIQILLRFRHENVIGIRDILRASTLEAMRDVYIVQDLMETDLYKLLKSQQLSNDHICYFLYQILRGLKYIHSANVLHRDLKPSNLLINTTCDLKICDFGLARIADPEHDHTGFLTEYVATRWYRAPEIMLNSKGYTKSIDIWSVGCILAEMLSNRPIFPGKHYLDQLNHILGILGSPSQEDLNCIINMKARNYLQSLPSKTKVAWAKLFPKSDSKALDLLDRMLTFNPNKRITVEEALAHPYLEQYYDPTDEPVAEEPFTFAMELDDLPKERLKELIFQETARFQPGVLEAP
# Type: biochemical
# Conditions: ERK1; 1 μM compound concentration
# Protocol: as §1
row,SMILES,POC (Percent of control) ERK1 [POC]
1,"c1cnc(Nc2cccc3[nH]ncc23)c(-c2ncnc3[nH]cnc23)c1 [Example 18, N-(3-(9H-Purin-6-yl)Pyridin-2-yl)-1H-Indazol-4-Amine]",104

# Target: ProfilerPro Kinase Selectivity Assay Kit kinases (Homo sapiens, UniProt P28482)
# Sequence (P28482 2-360 limits assumed): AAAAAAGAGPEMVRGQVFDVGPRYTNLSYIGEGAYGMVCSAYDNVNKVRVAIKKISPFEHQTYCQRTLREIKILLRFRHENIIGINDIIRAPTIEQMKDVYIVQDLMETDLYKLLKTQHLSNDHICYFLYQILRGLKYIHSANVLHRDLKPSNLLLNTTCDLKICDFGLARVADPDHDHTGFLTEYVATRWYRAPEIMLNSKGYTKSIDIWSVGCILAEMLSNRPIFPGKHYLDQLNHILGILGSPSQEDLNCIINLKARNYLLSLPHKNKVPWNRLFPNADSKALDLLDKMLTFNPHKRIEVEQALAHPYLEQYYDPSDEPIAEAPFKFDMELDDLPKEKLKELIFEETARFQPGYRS
# Type: biochemical
# Conditions: ERK2; 1 μM compound concentration
# Protocol: as §1
row,SMILES,POC (Percent of control) ERK2 [POC]
1,"c1cnc(Nc2cccc3[nH]ncc23)c(-c2ncnc3[nH]cnc23)c1 [Example 18, N-(3-(9H-Purin-6-yl)Pyridin-2-yl)-1H-Indazol-4-Amine]",96

# Target: ProfilerPro Kinase Selectivity Assay Kit kinases (Homo sapiens, UniProt P31749)
# Type: biochemical
# Conditions: AKT1; 1 μM compound concentration
# Protocol: as §1
row,SMILES,POC (Percent of control) AKT1 [POC]
1,"c1cnc(Nc2cccc3[nH]ncc23)c(-c2ncnc3[nH]cnc23)c1 [Example 18, N-(3-(9H-Purin-6-yl)Pyridin-2-yl)-1H-Indazol-4-Amine]",103

# Target: ProfilerPro Kinase Selectivity Assay Kit kinases (Homo sapiens, UniProt P35968)
# Sequence (P35968 20-1356 limits assumed): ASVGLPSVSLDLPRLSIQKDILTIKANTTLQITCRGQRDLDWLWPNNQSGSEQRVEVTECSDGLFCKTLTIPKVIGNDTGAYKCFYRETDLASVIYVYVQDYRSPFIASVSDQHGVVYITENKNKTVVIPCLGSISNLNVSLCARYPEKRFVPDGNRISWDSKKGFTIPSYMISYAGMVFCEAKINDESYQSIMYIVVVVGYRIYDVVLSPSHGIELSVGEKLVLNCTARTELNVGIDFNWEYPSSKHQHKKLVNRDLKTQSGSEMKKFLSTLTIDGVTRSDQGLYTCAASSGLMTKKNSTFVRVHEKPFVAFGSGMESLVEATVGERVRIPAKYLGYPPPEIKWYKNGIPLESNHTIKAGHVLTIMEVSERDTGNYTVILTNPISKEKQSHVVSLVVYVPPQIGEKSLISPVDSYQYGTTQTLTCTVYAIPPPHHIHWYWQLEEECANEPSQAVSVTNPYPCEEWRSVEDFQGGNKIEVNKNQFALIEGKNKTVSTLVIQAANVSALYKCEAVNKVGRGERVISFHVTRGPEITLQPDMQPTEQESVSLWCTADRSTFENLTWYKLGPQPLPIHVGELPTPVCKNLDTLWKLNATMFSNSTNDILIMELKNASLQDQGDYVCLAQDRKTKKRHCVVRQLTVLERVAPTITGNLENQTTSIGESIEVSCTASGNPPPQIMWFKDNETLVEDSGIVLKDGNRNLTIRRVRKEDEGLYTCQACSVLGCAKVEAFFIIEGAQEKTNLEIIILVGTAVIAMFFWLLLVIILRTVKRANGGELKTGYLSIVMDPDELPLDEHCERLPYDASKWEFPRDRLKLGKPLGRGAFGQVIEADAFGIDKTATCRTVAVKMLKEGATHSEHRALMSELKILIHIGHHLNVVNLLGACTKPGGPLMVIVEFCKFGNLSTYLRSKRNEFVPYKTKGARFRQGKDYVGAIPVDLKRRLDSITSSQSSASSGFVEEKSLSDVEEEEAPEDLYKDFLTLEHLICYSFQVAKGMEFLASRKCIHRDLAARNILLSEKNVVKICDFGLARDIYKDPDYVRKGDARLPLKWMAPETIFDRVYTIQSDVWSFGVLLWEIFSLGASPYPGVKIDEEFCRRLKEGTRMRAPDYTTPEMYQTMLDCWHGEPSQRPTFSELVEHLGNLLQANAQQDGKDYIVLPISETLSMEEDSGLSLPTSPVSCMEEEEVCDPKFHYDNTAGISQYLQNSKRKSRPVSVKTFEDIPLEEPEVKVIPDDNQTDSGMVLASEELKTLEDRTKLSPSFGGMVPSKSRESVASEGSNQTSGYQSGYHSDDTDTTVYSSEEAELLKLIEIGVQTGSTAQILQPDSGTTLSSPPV
# Type: biochemical
# Conditions: KDR; 1 μM compound concentration
# Protocol: as §1
row,SMILES,POC (Percent of control) KDR [POC]
1,"c1cnc(Nc2cccc3[nH]ncc23)c(-c2ncnc3[nH]cnc23)c1 [Example 18, N-(3-(9H-Purin-6-yl)Pyridin-2-yl)-1H-Indazol-4-Amine]",89

# Target: ProfilerPro Kinase Selectivity Assay Kit kinases (Homo sapiens, UniProt P36888)
# Type: biochemical
# Conditions: FLT3; 1 μM compound concentration
# Protocol: as §1
row,SMILES,POC (Percent of control) FLT3 [POC]
1,"c1cnc(Nc2cccc3[nH]ncc23)c(-c2ncnc3[nH]cnc23)c1 [Example 18, N-(3-(9H-Purin-6-yl)Pyridin-2-yl)-1H-Indazol-4-Amine]",106

# Target: ProfilerPro Kinase Selectivity Assay Kit kinases (Homo sapiens, UniProt P49137)
# Type: biochemical
# Conditions: MAPKAPK2; 1 μM compound concentration
# Protocol: as §1
row,SMILES,POC (Percent of control) MAPKAPK2 [POC]
1,"c1cnc(Nc2cccc3[nH]ncc23)c(-c2ncnc3[nH]cnc23)c1 [Example 18, N-(3-(9H-Purin-6-yl)Pyridin-2-yl)-1H-Indazol-4-Amine]",93

# Target: ProfilerPro Kinase Selectivity Assay Kit kinases (Homo sapiens, UniProt P49841)
# Type: biochemical
# Conditions: GSK3 beta; 1 μM compound concentration
# Protocol: as §1
row,SMILES,POC (Percent of control) GSK3 beta [POC]
1,"c1cnc(Nc2cccc3[nH]ncc23)c(-c2ncnc3[nH]cnc23)c1 [Example 18, N-(3-(9H-Purin-6-yl)Pyridin-2-yl)-1H-Indazol-4-Amine]",92

# Target: ProfilerPro Kinase Selectivity Assay Kit kinases (Homo sapiens, UniProt Q05513)
# Type: biochemical
# Conditions: PKC zeta; 1 μM compound concentration
# Protocol: as §1
row,SMILES,POC (Percent of control) PKC zeta [POC]
1,"c1cnc(Nc2cccc3[nH]ncc23)c(-c2ncnc3[nH]cnc23)c1 [Example 18, N-(3-(9H-Purin-6-yl)Pyridin-2-yl)-1H-Indazol-4-Amine]",102

# Target: ProfilerPro Kinase Selectivity Assay Kit kinases (Homo sapiens, UniProt Q06187)
# Sequence (Q06187 2-659 limits assumed): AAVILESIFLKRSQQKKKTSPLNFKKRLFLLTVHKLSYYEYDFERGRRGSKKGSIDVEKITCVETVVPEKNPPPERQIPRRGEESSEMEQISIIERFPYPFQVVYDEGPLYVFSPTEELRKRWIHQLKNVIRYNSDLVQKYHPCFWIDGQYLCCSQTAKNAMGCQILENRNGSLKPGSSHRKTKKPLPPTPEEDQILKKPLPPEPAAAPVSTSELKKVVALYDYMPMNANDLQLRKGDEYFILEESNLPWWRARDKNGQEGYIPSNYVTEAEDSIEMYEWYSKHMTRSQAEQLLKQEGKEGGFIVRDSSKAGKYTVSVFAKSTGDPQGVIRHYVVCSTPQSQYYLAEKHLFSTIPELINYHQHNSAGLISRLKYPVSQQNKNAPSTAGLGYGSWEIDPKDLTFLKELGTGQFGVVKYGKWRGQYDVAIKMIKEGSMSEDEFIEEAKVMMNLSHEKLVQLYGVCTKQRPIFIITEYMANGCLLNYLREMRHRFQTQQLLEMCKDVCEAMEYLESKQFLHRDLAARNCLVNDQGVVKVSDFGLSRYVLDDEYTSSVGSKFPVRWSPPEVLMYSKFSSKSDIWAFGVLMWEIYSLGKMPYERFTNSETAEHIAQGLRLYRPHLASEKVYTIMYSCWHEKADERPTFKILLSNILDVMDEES
# Type: biochemical
# Conditions: BTK; 1 μM compound concentration
# Protocol: as §1
row,SMILES,POC (Percent of control) BTK [POC]
1,"c1cnc(Nc2cccc3[nH]ncc23)c(-c2ncnc3[nH]cnc23)c1 [Example 18, N-(3-(9H-Purin-6-yl)Pyridin-2-yl)-1H-Indazol-4-Amine]",99

# Target: ProfilerPro Kinase Selectivity Assay Kit kinases (Homo sapiens, UniProt Q13627)
# Type: biochemical
# Conditions: DYRK1a; 1 μM compound concentration
# Protocol: as §1
row,SMILES,POC (Percent of control) DYRK1a [POC]
1,"c1cnc(Nc2cccc3[nH]ncc23)c(-c2ncnc3[nH]cnc23)c1 [Example 18, N-(3-(9H-Purin-6-yl)Pyridin-2-yl)-1H-Indazol-4-Amine]",59

# Target: ProfilerPro Kinase Selectivity Assay Kit kinases (Homo sapiens, UniProt Q13976)
# Type: biochemical
# Conditions: PKGa2; 1 μM compound concentration
# Protocol: as §1
row,SMILES,POC (Percent of control) PKGa2 [POC]
1,"c1cnc(Nc2cccc3[nH]ncc23)c(-c2ncnc3[nH]cnc23)c1 [Example 18, N-(3-(9H-Purin-6-yl)Pyridin-2-yl)-1H-Indazol-4-Amine]",90

# Target: ProfilerPro Kinase Selectivity Assay Kit kinases (Homo sapiens, UniProt Q16539)
# Sequence (Q16539 2-360 limits assumed): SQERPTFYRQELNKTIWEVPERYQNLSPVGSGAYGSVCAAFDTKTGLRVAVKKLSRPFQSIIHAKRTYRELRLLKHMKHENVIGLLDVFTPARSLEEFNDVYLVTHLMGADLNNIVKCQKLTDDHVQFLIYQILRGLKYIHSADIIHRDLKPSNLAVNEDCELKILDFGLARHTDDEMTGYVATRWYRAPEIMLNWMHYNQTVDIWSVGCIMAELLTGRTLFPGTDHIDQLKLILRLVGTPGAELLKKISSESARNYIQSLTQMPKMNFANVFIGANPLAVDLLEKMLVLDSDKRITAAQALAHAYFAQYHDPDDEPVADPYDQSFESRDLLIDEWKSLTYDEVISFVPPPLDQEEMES
# Type: biochemical
# Conditions: p38 alpha; 1 μM compound concentration
# Protocol: as §1
row,SMILES,POC (Percent of control) p38 alpha [POC]
1,"c1cnc(Nc2cccc3[nH]ncc23)c(-c2ncnc3[nH]cnc23)c1 [Example 18, N-(3-(9H-Purin-6-yl)Pyridin-2-yl)-1H-Indazol-4-Amine]",86

# Target: ProfilerPro Kinase Selectivity Assay Kit kinases (Homo sapiens, UniProt Q16566)
# Type: biochemical
# Conditions: CAMK4; 1 μM compound concentration
# Protocol: as §1
row,SMILES,POC (Percent of control) CAMK4 [POC]
1,"c1cnc(Nc2cccc3[nH]ncc23)c(-c2ncnc3[nH]cnc23)c1 [Example 18, N-(3-(9H-Purin-6-yl)Pyridin-2-yl)-1H-Indazol-4-Amine]",71

# Target: ProfilerPro Kinase Selectivity Assay Kit kinases (Homo sapiens, UniProt Q8IW41)
# Type: biochemical
# Conditions: PRAK; 1 μM compound concentration
# Protocol: as §1
row,SMILES,POC (Percent of control) PRAK [POC]
1,"c1cnc(Nc2cccc3[nH]ncc23)c(-c2ncnc3[nH]cnc23)c1 [Example 18, N-(3-(9H-Purin-6-yl)Pyridin-2-yl)-1H-Indazol-4-Amine]",95

# Target: ProfilerPro Kinase Selectivity Assay Kit kinases (Homo sapiens, UniProt Q9BZL6)
# Type: biochemical
# Conditions: PKD2; 1 μM compound concentration
# Protocol: as §1
row,SMILES,POC (Percent of control) PKD2 [POC]
1,"c1cnc(Nc2cccc3[nH]ncc23)c(-c2ncnc3[nH]cnc23)c1 [Example 18, N-(3-(9H-Purin-6-yl)Pyridin-2-yl)-1H-Indazol-4-Amine]",97

# Target: ProfilerPro Kinase Selectivity Assay Kit kinases (Homo sapiens, UniProt Q9P0L2)
# Type: biochemical
# Conditions: MARK1; 1 μM compound concentration
# Protocol: as §1
row,SMILES,POC (Percent of control) MARK1 [POC]
1,"c1cnc(Nc2cccc3[nH]ncc23)c(-c2ncnc3[nH]cnc23)c1 [Example 18, N-(3-(9H-Purin-6-yl)Pyridin-2-yl)-1H-Indazol-4-Amine]",112

# Target: ProfilerPro Kinase Selectivity Assay Kit kinases (Homo sapiens, UniProt Q9P1W9)
# Type: biochemical
# Conditions: PIM2; 1 μM compound concentration
# Protocol: as §1
row,SMILES,POC (Percent of control) PIM2 [POC]
1,"c1cnc(Nc2cccc3[nH]ncc23)c(-c2ncnc3[nH]cnc23)c1 [Example 18, N-(3-(9H-Purin-6-yl)Pyridin-2-yl)-1H-Indazol-4-Amine]",101

# Test system: ProfilerPro Kinase Selectivity Assay Kit kinases
# Type: biochemical
# Conditions: AMPK; 1 μM compound concentration
# Protocol: as §1
row,SMILES,POC (Percent of control) AMPK [POC]
1,"c1cnc(Nc2cccc3[nH]ncc23)c(-c2ncnc3[nH]cnc23)c1 [Example 18, N-(3-(9H-Purin-6-yl)Pyridin-2-yl)-1H-Indazol-4-Amine]",83

# Same assay, conditions: CAMK2; 1 μM compound concentration
row,SMILES,POC (Percent of control) CAMK2 [POC]
1,"c1cnc(Nc2cccc3[nH]ncc23)c(-c2ncnc3[nH]cnc23)c1 [Example 18, N-(3-(9H-Purin-6-yl)Pyridin-2-yl)-1H-Indazol-4-Amine]",90

# Same assay, conditions: PKC beta2; 1 μM compound concentration
row,SMILES,POC (Percent of control) PKC beta2 [POC]
1,"c1cnc(Nc2cccc3[nH]ncc23)c(-c2ncnc3[nH]cnc23)c1 [Example 18, N-(3-(9H-Purin-6-yl)Pyridin-2-yl)-1H-Indazol-4-Amine]",91

# Same assay, conditions: TAK1; 1 μM compound concentration
row,SMILES,POC (Percent of control) TAK1 [POC]
1,"c1cnc(Nc2cccc3[nH]ncc23)c(-c2ncnc3[nH]cnc23)c1 [Example 18, N-(3-(9H-Purin-6-yl)Pyridin-2-yl)-1H-Indazol-4-Amine]",97
